The results in this text go back to US20260234165A1, “MACROCYCLIC COMPOUNDS, PREPARATION METHOD THEREFOR, AND USE THEREOF” (GENFLEET THERAPEUTICS (SHANGHAI) INC., priority 2004, published 2026).

In general, IC50 refers to the concentration needed to halve the response being measured.

What all share (format): cell-based, human
In one test the test system is NCI-H441 cells. Kind of test: 3D cell proliferation assay (CellTiter Glo-3D), NCI-H441. The settings on record: medium with 2% FBS, read-out: H441 AP IC50. The source says: (§1) MIA PaCa-2 cells were purchased from ATCC, Cat. No. CRL-1420; AsPC-1 cells were purchased from ATCC, Cat. No. CRL-1682; NCI-H441 cells were purchased from ATCC, Cat. No. HTB-174: NCI-H1975 cells were purchased from ATCC. Cat. No. CRL-5908; DMEM medium was purchased from Gibco, Cat. No. 11995-065: RPMI-1040 medium was purchased from Gibco. Cat. No. H 18754093; FBS was purchased from Gibco, Cat. No. 10099-141C. penicillin, streptomycin double-antibiotic solution (PS) was purchased from Gibco, Cat. No. 15140-122; Horse serum was purchased from Gibco. Cat. No. 16050130: trypsin (containing EDTA) was purchased from Gibco, Cat. No. 25200-072; DMSO was purchased from VWRAMRESCO, Cat. No. 0231-500ML; 384-well cell culture plates were purchased from Corning, Cat. No. 3830; white-bottomed, opaque 384-well assay plates were purchased from Corning, Cat. No. 3570. CellTiter Glo-3D) kit was purchased from Promega. Cat. No. G9683; cell counter was purchased from CHEMOMETEC, model: NC-200: microplate reader was purchased from PerkinElmer, model: EnVision.
(§2) MIA PaCa-2, a human pancreatic cancer cell strain endogenously containing a KRAS^G12C mutation, was cultured in a complete medium containing DMEM+10% FBS+2.5% Horse serum+1% PS. AsPC-1, a human pancreatic cancer cell strain endogenously containing a […] mutation, was cultured in a complete medium containing RPMI-1640+10% FBS+1% PS. NCI-H441 cells, a human lung cancer cell strain endogenously containing a […] mutation, were cultured in a complete medium containing RPMI-1640+10% FBS+1% PS. NCI-H1975, a KRAS wild-type human lung cancer cell strain whose cell proliferation depends on KRAS activity, was cultured in a complete medium containing RPMI-1640+10% FBS+1% PS.
(§3) The cells were digested with trypsin (containing EDTA), collected in their respective low-serum complete media containing 2% FBS (for MIA Paca-2 cell culture: DMEM+2% FBS+0.5% Horse serum+1% PS), and counted. After the cell density was adjusted as required, 200 MIA PaCa-2 cells, 800 AsPC-1 cells, 800 NCI-H441 cells, or 400 NCI-H1975 cells per well were seeded into a 384-well cell culture plate, with the volume of the medium in each well being 45 μL. The cell culture plate was incubated in an incubator at 37° C. with 5% CO2, overnight. A series of 3.16-fold gradient dilutions of a 1000× compound stock solution were prepared with DMSO, and then diluted 100-fold with the complete medium containing 2% FBS described above to give 10- compound stock solutions. On the day after cell seeding, 5 μL of the 10- compound stock solution was added to each cell culture well. As a result, the final concentration of the compound in the cell culture well became 1×, and the DMSO content in the well was 0.1%. In addition to the compound-treated wells described above, cell-containing DMSO control wells (with 5 μL of the complete medium containing 1% DMSO added to each well) and cell-free medium control wells (containing 50 μL of the complete medium with 2% FBS) were also set. The culture plate was incubated in an incubator at 37° C. with 5% CO2 for another 5 days, and then 30 μL of CellTiter-Glo working solution was added to each well. The mixture was well mixed, incubated for 30 min, left to stand at room temperature for 30 min, and then transferred to a white-bottomed, opaque 384-well assay plate at 40 μL/well. The chemiluminescence values (RLU) were measured using a microplate reader, and the cell proliferation inhibition rate for each well was calculated: IR (%)=(RLUDMSO—RLUcompound)/(RLUDMSO−RLUblank)×100%, where RLUDMSO is the average RLU signal value from the DMSO control well samples, RLUblank is the average RLU signal value from the medium control well samples, and RLUcompound is the RLU signal value from the compound-treated well samples. […]
In general terms: ATP-based viability assays read luminescence as a measure of living cells.

For test [1], the system named is p-ERK in NCI-H441 cells (KRAS G12V mutation). In words: Cell p-ERK assay (HTRF) in NCI-H441 cells. The conditions noted are these: NCI-H441 cells, 3 h compound incubation, HTRF p-ERK T202/Y204, read-out: H441 p-ERK IC50. The essentials:
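AsPC-1 (10000/well) or NCI-H441 (20000/well) cells were seeded overnight, then treated 3 h at 37° C. with 3.16-fold compound dilutions (0.1% DMSO final). Lysates were probed 4 h for phospho-ERK T202/Y204 by HTRF; inhibition versus DMSO and blank wells gave IC50 from four-parameter fits.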

Test [2] has as its system p-ERK in AsPC-1 cells (KRAS G12D mutation). Kind of test: Cell p-ERK assay (HTRF) in AsPC-1 cells. The settings on record: AsPC-1 cells, 3 h compound incubation, HTRF p-ERK T202/Y204, read-out: AsPC-1 p-ERK IC50. How it is done:
AsPC-1 cells were purchased from ATCC, Cat. No. CRL-1682: NCI-H441 cells were purchased from ATCC, Cat. No. HTB-174: RPMI-1640 medium was purchased from Gibco, Cat. No. I1875-093: FBS was purchased from Gibco, Cat. No. 10099-141C: penicillin/streptomycin double-antibiotic solution (PS) was purchased from Gibco, Cat. No. 15140-122: trypsin (containing EDTA) was purchased from Gibco, Cat. No. 25200-072; DMSO was purchased from VWRAMRESCO, Cat. No. 0231-500ML; 96-well cell culture plates were purchased from Corning, Cat. No. 3599: white-bottomed, opaque 96-well plates were purchased from Cisbio, Cat. No. 66PL96025; Advance ERK phospho-T202/Y204 kit was purchased from Cisbio, Cat. No. 64AERPEH; cell counter was purchased from CHEMOMETEC, model: NC-200; microplate reader was purchased from PerkinElmer, model: EnVision.
AsPC-1, a human pancreatic cancer cell strain endogenously containing a KRAS^G12D mutation, was cultured in a complete medium containing RPMI-1640+10% FBS+1% PS. NCI-H441, a human non-small cell lung cancer cell strain endogenously containing a KRAS^G12V mutation, was cultured in a complete medium containing RPMI-1640+10% FBS+1% PS.
The cells were digested with trypsin (containing EDTA), collected in their corresponding complete media, and counted. The density of the cell suspensions was adjusted with their corresponding complete media, and 10000 AsPC-1 cells or 20000 NCI-H441 cells per well were seeded into a 96-well cell culture plate, with the volume of the medium in each well being 80 μL.
The cell culture plate was incubated in an incubator at 37° C. with 5% CO2 overnight. A series of 3.16-fold gradient dilutions of a 1000- compound stock solution were prepared with DMSO, and then diluted 200-fold with the complete medium described above to give 5′ compound stock solutions. On the day after cell seeding, 20 μL of the 5× compound stock solution was added to each cell culture well. As a result, the final concentration of the compound in the cell culture well became 1×, and the DMSO content in the well was 0.1%. In addition to the compound-treated wells described above, cell-containing DMSO control wells were also set. A complete medium containing 0.5% DMSO was added at 20 μL/well. After the mixture was well mixed, the culture plate was incubated in the incubator at 37° C. with 5% CO2 for another 3 h. The medium was then removed from the culture wells, and 50 μL of cell lysis buffer (from Advance ERK phospho-T202,Y204 kit) was added to each well. The mixture was well mixed and incubated for 30 min. Then, 16 μL of the mixture was transferred to a white-bottomed, opaque 96-well assay plate, and separately, 16 μL of cell lysis buffer was added to additional wells (serving as blank wells) in the assay plate. After the transfer was completed, 4 μL of p-ERK HTRF antibody mixture (from Advance ERK phospho-T202/Y204 kit) was added to each well of the assay plate, followed by a 4-hour incubation. The HTRF signal values (RLU) were then measured using a microplate reader, and the inhibition rate of the compound against p-ERK levels was calculated as follows: IR (%)=(RLUDMSO−RLUcompound)/(RLUDMSO−RLUblank)×100%, where RLUDMSO is the average HTRF signal value from the DMSO control well samples, RLUblank is the average HTRF signal value from the blank well samples, and RLUcompound is the HTRF signal value from the compound-treated well samples. Using an XLfit software, the IR (%) values were plotted against the logarithm of the compound concentrations, and the dose-response curves were fitted using the four-parameter method to calculate the IC50 values.

For test [3], the system named is AsPC-1 cells (KRAS G12D mutation). In words: 3D cell proliferation assay (CellTiter Glo-3D), AsPC-1. The conditions noted are these: medium with 2% FBS, read-out: AsPC-1 AP IC50.
From the text: as §1, §2, §3

Where [4] appears, read: Homo sapiens, NCI-H441, 3D cell proliferation (CellTiter Glo-3D).
[5] abbreviates: 3D cell proliferation (CellTiter Glo-3D).

Where a name gives a salt, the structure may show the parent alone. Read-outs that look alike come from different tables or passages of the source.

Regarding `CCn1c(-c2cc(N3CCN(C)CC3)cnc2[C@H](C)OC)c2c3cc(ccc31)-c1csc(n1)C[C@H](Nc1cccnn1)C(=O)N1CCC[C@H](N1)C(=O)OCC(C)(C)C2` (atropisomer, axis not shown; (Ra)) [Compound Z457, (6^3S,4S,Z)-1^1-ethyl-(Ra)-1^2-(2-((S)-1-methoxyethyl)-5-(4-methylpiperazin-1-yl)pyridin-3-yl)-10,10-dimethyl-4-(pyridazin-3-ylamino)-6^1,6^2,6^3,6^4,6^5,6^6-hexahydro-1^1H-8-oxa-2(4,2)-thiazola-1(5,3)-indola-6(1,3)-pyridazinacycloundecaphane-5,7-dione], the IC50 worked out at 27.6 nM in the test with NCI-H441 cells (setting [4]); 26.1 nM in test [1] (Homo sapiens, NCI-H441, 3 h); 92 nM in test [2] (Homo sapiens, ASPC1, 3 h).

For the molecule `CCn1c(-c2cc(N3CCN4CC5(CC5)OC[C@@H]4C3)cnc2[C@H](C)OC)c2c3cc(ccc31)-c1csc(n1)C[C@H](NC(=O)[C@H]1[C@H](C)[C@@H]1C)C(=O)N1CCC[C@H](N1)C(=O)OCC1(CCC1)C2` [Compound Z467, (1r,2R,3S)—N-((3′S,4′S,Z)-1′-ethyl-2′-(2-((S)-1-methoxyethyl)-5-((S)-tetrabydro-4H-spiro[cyclopropane-1,3′-pyrazino[2,1-c][1,4]oxazin]-8′(1′H)-yl)pyridin-3-yl)-5′,7′-dioxospiro[cyclobutane-1,10′-8-oxa-2(4,2)-thiazola-1(5,3)-indola-6(1,3)-pyridazinacycloundecaphan]-4′-yl)-2,3-dimethylcyclopropane-1-carboxamide], the IC50 in the test with NCI-H441 cells (setting [4]) is 58.4 nM; in test [1] (Homo sapiens, NCI-H441, 3 h), 28.2 nM; in test [2] (Homo sapiens, ASPC1, 3 h), 69 nM.

`CCn1c(-c2cc(N3CCN(C)CC3)cnc2[C@H](C)OC)c2c3cc(ccc31)-c1csc(n1)C[C@H](NC1CCN(C)C1=O)C(=O)N1CCC[C@H](N1)C(=O)OCC(C)(C)C2` (atropisomer, axis not shown; (Ra)) [Compound Z70, (6^3S,4S,Z)-1^1-ethyl-(Ra)-1^2-(2-((S)-1-methoxyethyl)-5-(4-methylpiperazin-1-yl)pyridin-3-yl)-10,10-dimethyl-4-((1-methyl-2-oxopyrrolidin-3-yl)amino)-6^1,6^2,6^3,6^4,6^5,6^6-hexahydro-1^1H-8-oxa-2(4,2)-thiazola-1(5,3)-indola-6(1,3)-pyridazinacycloundecaphane-5,7-dione formate]: the IC50 in test [3] (Homo sapiens, ASPC1, 3D cell proliferation (CellTiter Glo-3D)) worked out at 416 nM; in the test on NCI-H441 cells (setting [4]) it was 344 nM.

For `CCn1c(-c2cc(N3CCN(C)CC3)cnc2[C@H](C)OC)c2c3cc(ccc31)-c1csc(n1)C[C@H](Nc1ccccn1)C(=O)N1CCC[C@H](N1)C(=O)OCC(C)(C)C2` (atropisomer, axis not shown; (Ra)) [Compound Z69, (6^3S,Z)-1^1-ethyl-(Ra)-1^2-(2-((S)-1-methoxyethyl)-5-(4-methylpiperazin-1-yl)pyridin-3-yl)-10,10-dimethyl-4-(pyridin-2-ylamino)-6^1,6^2,6^3,6^4,6^5,6^6-hexahydro-1^1H-8-oxa-2(4,2)-thiazola-1(5,3)-indola-6(1,3)-pyridazinacycloundecaphane-5,7-dione], the IC50 in test [3] (setting [5]) is 347 nM; in the test with NCI-H441 cells (setting [5]), 399 nM.

Take “(2R)—N-(5-((6^3S,4S,Z)-4-((1r, 2R,3S)-2,3-dimethylcyclopropane-1-carboxamido)-1^1-ethyl-10,10-dimethyl-5,7-dioxo-6^1,6^2,6^3,6^4,6^5,6^6-hexahydro-1^1H-8-oxa-2(4,2)-thiazola-1(5,3)-indola-6(1,3)-pyridazinacycloundecaphane-2-yl)-6-((S)-1-methoxyethyl)pyridin-3-yl)-N,1-dimethylazepane-2-carboxamide [Compound Z355]”: the values for the IC50 (in the test with NCI-H441 cells (setting [5]); in test [1]; in test [2]) were 54.7 nM, 45.7 nM and 109 nM, respectively.
